Data: patent US20090281099A1, “SUBSTITUTED PYRAZINONE DERIVATIVES FOR USE AS A MEDICINE” (priority 2006, published 2009)
Like-named read-outs stand apart in the source and are kept apart here.

Legend:
[1] = biological target: T1, hα2C receptor (Homo sapiens, UniProt P18825); assay: Radioligand binding experiment for α2C-adrenoceptor ([3H]-raulwolscine, CHO cell membranes); details: read-out: h-α2C pIC50 (converted)
T1 construct: expressed in transfected cells
T1 sequence (P18825 1-462): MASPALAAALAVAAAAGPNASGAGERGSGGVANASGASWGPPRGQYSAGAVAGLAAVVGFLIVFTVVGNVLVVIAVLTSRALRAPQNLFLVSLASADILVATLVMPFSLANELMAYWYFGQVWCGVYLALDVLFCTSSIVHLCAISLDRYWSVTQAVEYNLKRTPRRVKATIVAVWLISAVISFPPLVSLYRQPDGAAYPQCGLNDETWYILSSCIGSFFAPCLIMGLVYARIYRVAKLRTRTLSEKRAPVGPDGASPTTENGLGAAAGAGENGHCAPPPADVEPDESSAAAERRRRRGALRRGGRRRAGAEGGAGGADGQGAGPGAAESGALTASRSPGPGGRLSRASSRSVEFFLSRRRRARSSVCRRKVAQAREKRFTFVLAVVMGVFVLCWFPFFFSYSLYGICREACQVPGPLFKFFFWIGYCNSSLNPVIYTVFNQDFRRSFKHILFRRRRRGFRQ

[2] = biological target: T2, hα2A receptor (Homo sapiens, UniProt P08913); assay: Radioligand binding experiment for hα2A receptor ([3H]-raulwolscine, CHO cell membranes); details: read-out: h-α2A pIC50 (converted)
T2 construct: expressed in transfected cells
T2 sequence (P08913 1-465): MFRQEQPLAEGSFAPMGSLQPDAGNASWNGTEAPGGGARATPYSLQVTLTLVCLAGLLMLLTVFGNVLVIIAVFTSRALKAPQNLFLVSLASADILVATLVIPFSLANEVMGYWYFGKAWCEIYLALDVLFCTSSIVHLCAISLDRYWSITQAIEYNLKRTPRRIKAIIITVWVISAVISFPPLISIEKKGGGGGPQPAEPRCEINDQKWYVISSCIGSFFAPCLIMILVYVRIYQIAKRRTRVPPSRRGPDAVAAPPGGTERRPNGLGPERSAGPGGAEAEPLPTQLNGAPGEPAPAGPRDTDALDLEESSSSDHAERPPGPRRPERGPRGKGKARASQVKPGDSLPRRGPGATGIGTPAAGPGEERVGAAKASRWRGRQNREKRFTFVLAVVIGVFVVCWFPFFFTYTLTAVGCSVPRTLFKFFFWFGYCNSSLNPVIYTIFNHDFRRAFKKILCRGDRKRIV

[3] = biological target: T3, 5HT-Transporter (Homo sapiens, UniProt P31645); assay: Binding experiment for the 5HT-transporter ([3H]paroxetine, human platelet membranes); details: [3H]paroxetine 0.5 nM, read-out: h-5HTT pIC50 (converted)
T3 construct: Human platelet membranes (Oceanix Biosciences Corporation, Hanover, Md., USA) were thawed; tissue Oceanix Biosciences Corporation; host or cells: human platelet membranes
T3 sequence (P31645 whole entry): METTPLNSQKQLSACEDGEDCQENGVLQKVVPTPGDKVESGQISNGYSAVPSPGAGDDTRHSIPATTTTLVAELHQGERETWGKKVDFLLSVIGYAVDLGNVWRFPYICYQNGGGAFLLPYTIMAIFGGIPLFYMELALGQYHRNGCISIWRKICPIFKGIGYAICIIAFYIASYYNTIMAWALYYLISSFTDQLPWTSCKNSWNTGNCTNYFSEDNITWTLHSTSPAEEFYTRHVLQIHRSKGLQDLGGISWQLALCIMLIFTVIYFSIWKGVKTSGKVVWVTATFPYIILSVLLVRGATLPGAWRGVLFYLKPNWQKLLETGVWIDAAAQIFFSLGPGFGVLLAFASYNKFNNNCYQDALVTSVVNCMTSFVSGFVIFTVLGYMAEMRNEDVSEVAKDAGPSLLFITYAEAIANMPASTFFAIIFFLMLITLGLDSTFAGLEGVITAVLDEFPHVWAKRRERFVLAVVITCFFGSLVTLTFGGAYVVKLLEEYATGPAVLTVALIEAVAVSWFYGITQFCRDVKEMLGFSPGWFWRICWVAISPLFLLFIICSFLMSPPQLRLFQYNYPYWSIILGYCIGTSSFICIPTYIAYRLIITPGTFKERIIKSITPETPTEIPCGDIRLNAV

[4] = [3H]raulwolscine 1 nM, membranes of CHO cells transfected with human α2C receptor
[5] = [3H]raulwolscine 1 nM, membranes of CHO cells transfected with human α2A receptor

| Compound | IC50 [1, 4] [µM] | IC50 [2, 5] [µM] | IC50 [3] [µM] | IC50 [1] [µM] | IC50 [2] [µM] |
| --- | --- | --- | --- | --- | --- |
| NCCCn1ccnc(NC2CCN(CCOc3ccccc3)CC2)c1=O [Compound 1-1] | 0.00794 | 0.126 | > 10 |  |  |
| NCc1ccc(Cn2ccnc(NC3CCN(CCOc4ccccc4)CC3)c2=O)cc1 [Compound 1-2] | 0.00158 | 0.0158 | 7.94 |  |  |
| CN(C)CCn1ccnc(NC2CCN(CCOc3ccccc3)CC2)c1=O [Compound 1-3] | 0.02 | 0.158 | > 10 |  |  |
| CN(C)CCCn1ccnc(NC2CCN(CCOc3ccccc3)CC2)c1=O [Compound 1-4] | 0.00398 | 0.2 | > 10 |  |  |
| CN(C)C(=O)Cn1ccnc(NC2CCN(CCOc3ccccc3)CC2)c1=O [Compound 1-5] | 0.0398 | 0.501 | > 10 |  |  |
| CN(C(=O)Cn1ccnc(NC2CCN(CCOc3ccccc3)CC2)c1=O)C1CCCCC1 [Compound 1-6] | 0.002 | 0.126 | 7.94 |  |  |
| C#CCN(C)C(=O)Cn1ccnc(NC2CCN(CCOc3ccccc3)CC2)c1=O [Compound 1-7] | 0.0126 | 0.251 | > 10 |  |  |
| O=C(Cn1ccnc(NC2CCN(CCOc3ccccc3)CC2)c1=O)Nc1ccccc1 [Compound 1-8] | 0.00501 | 0.158 | 6.31 |  |  |
| CN(C(=O)Cn1ccnc(NC2CCN(CCOc3ccccc3)CC2)c1=O)c1ccccc1 [Compound 1-9] | 0.00316 | 0.1 | 3.98 |  |  |
| O=C(Cn1ccnc(NC2CCN(CCOc3ccccc3)CC2)c1=O)Nc1ccc(F)cc1 [Compound 1-10] | 0.00398 | 0.158 |  |  |  |
| O=C(Cn1ccnc(NC2CCN(CCOc3ccccc3)CC2)c1=O)NCc1ccccc1 [Compound 1-11] | 0.00631 | 0.251 | 7.94 |  |  |
| O=c1c(NC2CCN(CCOc3ccccc3)CC2)nccn1-c1cccc(NCc2ccccc2)c1 [Compound 1-12] | 0.00398 | 0.0501 | 2.51 |  |  |
| CN(Cc1ccccc1)C(=O)Cn1ccnc(NC2CCN(CCOc3ccccc3)CC2)c1=O [Compound 1-13] | 0.00398 | 0.126 | 5.01 |  |  |
| O=C(Cn1ccnc(NC2CCN(CCOc3ccccc3)CC2)c1=O)NCc1ccc(F)cc1 [Compound 1-14] | 0.00251 | 0.251 | 7.94 |  |  |
| O=C(Cn1ccnc(NC2CCN(CCOc3ccccc3)CC2)c1=O)NCCc1ccccc1 [Compound 1-15] | 0.00316 | 0.251 |  |  |  |
| CN(CCc1ccccc1)C(=O)Cn1ccnc(NC2CCN(CCOc3ccccc3)CC2)c1=O [Compound 1-16] | 0.00794 | 0.2 | > 10 |  |  |
| O=C(Cn1ccnc(NC2CCN(CCOc3ccccc3)CC2)c1=O)NCCCc1ccccc1 [Compound 1-17] | 0.0126 | 0.316 | 2.51 |  |  |
| CCCCN(Cc1ccccc1)C(=O)Cn1ccnc(NC2CCN(CCOc3ccccc3)CC2)c1=O [Compound 1-18] | 0.00631 | 0.126 | > 10 |  |  |
| O=C(Cn1ccnc(NC2CCN(CCOc3ccccc3)CC2)c1=O)NCC(c1ccccc1)c1ccccc1 [Compound 1-19] | 0.00501 | 0.158 | 3.16 |  |  |
| CC(C)(C)OC(=O)NCCCn1ccnc(NC2CCN(CCOc3ccccc3)CC2)c1=O [Compound 1-20] | 0.00251 | 0.126 | 6.31 |  |  |
| CN(C)CCN(Cc1ccccc1)C(=O)Cn1ccnc(NC2CCN(CCOc3ccccc3)CC2)c1=O [Compound 1-21] | 0.000794 | 0.02 | 1.58 |  |  |
| O=C(Cn1ccnc(NC2CCN(CCOc3ccccc3)CC2)c1=O)N(CCN1CCCC1)Cc1ccccc1 [Compound 1-23] | 0.000501 | 0.0316 |  |  |  |

| Compound | IC50 [1, 4] [µM] | IC50 [2, 5] [µM] | IC50 [3] [µM] | IC50 [1] [µM] | IC50 [2] [µM] |
| --- | --- | --- | --- | --- | --- |
| O=C(Cn1ccnc(NC2CCN(CCOc3ccccc3)CC2)c1=O)N(CCN1CCCC1)Cc1ccc(F)cc1 [Compound 1-24] | 0.000316 | 0.0158 | 5.01 |  |  |
| O=c1c(NC2CCN(CCOc3ccccc3)CC2)nccn1CCN1CCCCC1 [Compound 2-1] | 0.00251 | 0.1 |  |  |  |
| O=C(Cn1ccnc(NC2CCN(CCOc3ccccc3)CC2)c1=O)N1CCCCC1 [Compound 2-3] | 0.00794 | 0.251 | > 10 |  |  |
| O=c1c(NC2CCN(CCOc3ccccc3)CC2)nccn1-c1ccc(N2CCCCC2)cc1 [Compound 2-4] | 0.02 | 0.2 | 2.51 |  |  |
| O=c1c(NC2CCN(CCOc3ccccc3)CC2)nccn1-c1ccc(CN2CCCCC2)cc1 [Compound 2-5] | 0.001 | 0.1 | 3.98 |  |  |
| O=C(Cn1ccnc(NC2CCN(CCOc3ccccc3)CC2)c1=O)N1CCC(C(F)(F)F)CC1 [Compound 2-6] | 0.00398 | 0.1 | > 10 |  |  |
| O=C(Cn1ccnc(NC2CCN(CCOc3ccccc3)CC2)c1=O)N1CCC(Cc2ccccc2)CC1 [Compound 2-7] | 0.00501 | 0.158 | 1 |  |  |
| O=C(Cn1ccnc(NC2CCN(CCOc3ccccc3)CC2)c1=O)N1CCC(N2CCCC2)CC1 [Compound 2-8] | 0.00251 | 0.0794 | > 10 |  |  |
| O=c1c(NC2CCN(CCOc3ccccc3)CC2)nccn1-c1cccc(N2CCC(N3CCCC3)CC2)c1 [Compound 2-9] | 0.001 | 0.00794 | 6.31 |  |  |
| O=c1c(NC2CCN(CCOc3ccccc3)CC2)nccn1-c1ccc(N2CCC(N3CCCC3)CC2)cc1 [Compound 2-10] | 0.00794 | 0.126 | 3.16 |  |  |
| O=C(Cn1ccnc(NC2CCN(CCOc3ccccc3)CC2)c1=O)N1CCN(Cc2ccccc2)CC1 [Compound 2-12] |  |  | 6.31 | 0.00251 | 0.2 |
| O=c1c(NC2CCN(CCOc3ccccc3)CC2)nccn1CCN1CCOCC1 [Compound 2-13] | 0.02 | 0.631 | > 10 |  |  |
| O=C1c2ccccc2C(=O)N1CCCn1ccnc(NC2CCN(CCOc3ccccc3)CC2)c1=O [Compound 2-15] | 0.00126 | 0.2 | 1 |  |  |
| O=C1c2ccccc2C(=O)N1CC#CCn1ccnc(NC2CCN(CCOc3ccccc3)CC2)c1=O [Compound 2-16] | 0.00794 | 0.501 | 1.26 |  |  |
| O=c1c(NC2CCN(CCOc3ccccc3)CC2)nccn1CCCn1c(=O)[nH]c2ccccc21 [Compound 2-17] | 0.00126 | 0.126 | 3.16 |  |  |
| COCCn1ccnc(NC2CCN(CCOc3ccccc3)CC2)c1=O [Compound 3-1] | 0.0501 | 0.631 | > 10 |  |  |
| COC(=O)Cn1ccnc(NC2CCN(CCOc3ccccc3)CC2)c1=O [Compound 3-2] | 0.0251 | 0.158 | > 10 |  |  |
| CCOC(=O)CCCCn1ccnc(NC2CCN(CCOc3ccccc3)CC2)c1=O [Compound 3-3] | 0.0158 | 0.251 | 3.16 |  |  |
| O=c1c(NC2CCN(CCOc3ccccc3)CC2)nccn1Cc1ccccc1Br [Compound 4-1] | 0.00794 | 0.158 | 2.51 |  |  |
| O=c1c(NC2CCN(CCOc3ccccc3)CC2)nccn1Cc1cccc(Br)c1 [Compound 4-2] | 0.0158 | 0.158 | 1.58 |  |  |
| CC(C)(C)C(=O)Cn1ccnc(NC2CCN(CCOc3ccccc3)CC2)c1=O [Compound 5-6] | 0.01 | 0.2 |  |  |  |
